From patent US20230047208A1, “RNA Splicing Modulation” (The General Hospital Corporation, priority 2020, published 2023)

Legend:
CFTR channel = experiment: CFTR functional assessment, short circuit current (Ussing chamber) in CFBE cells stably expressing c.2988G>A; format: cell-based, human
Excerpt: WT CFTR-EMG-i14-i18, CFTR-EMG-i14-i18 harboring c.2988G>A, Flp-In-CFBE, and Flp-In-293 cells stably expressing WT-EMG and c.2988G>A EMG were generated. Both Flpin-293 and Flp-In-CFBE cells lack endogenous CFTR expression (CFBE41o-) and contain a single Flp recombinase target site. Co-transfection of EMG plasmid with pOG44 (a plasmid encoding Flp recombinase) allowed for genomic integration at the FRT site. Hygromycin was used for stable cell selection.
Assessment of CFTR channel function and response to Compound (I) was performed in CFBEs stably expressing c.2988G>A. Briefly, CFBE stable cell lines were plated on snapwell filters. When transepithelial resistance reached ˜200Ω (˜ 5-7 days) as measured using Voltammeter (Physiologic Instruments), cells were treated with Compound (I) at varying doses (0.3 μM to 10 μM) for next 3 days. Filters were mounted in Ussing chambers (Physiological Instruments). A high chloride solution was added to the basolateral chamber and a low chloride solution was added to the apical chamber. After equilibration of currents, 10 μM forskolin (Selleckchem) was added to the basolateral side to activate CFTR channels via cAMP signaling. Currents were allowed to plateau, followed by acute addition of 10 μM ivacaftor at apical side for CFTR potentiation (Selleckchem). Inhibition of CFTR was performed using 10 μM Inh-172 (Selleckchem) added to the apical chamber.
The ability of Compound (I) to rescue chloride channel function was also assessed. CF bronchial epithelial (CFBE) cell lines was generated to stably express the splicing mutation c.2988G>A. Cells were grown in monolayers on filters and treated with increasing doses of Compound (I) (0.3 μM-10 μM) or DMSO for 3 days. Chloride channel function was assessed by measuring short circuit current (Isc) on treated CFBE cells. Forskolin was added to initiate CFTR channel activity via cAMP-mediated signaling, with further channel activation by Ivacaftor and inhibition with Inh-172, a CFTR-specific inhibitor (FIG. 9C, representative Isc tracing). CFTR-specific change in current (ΔIsc±SD) allows for measurement of chloride channel function (FIG. 9C). […] Significant recovery of CFTR function (˜3 fold) was observed following treatment with Compound (I) at 1, 3, 6, and 10 μM for 3 days, with a maximal increase in CFTR function achieved using 3 μM of Compound (I) (ΔIsc=37.168±4.32 μA/cm^2, FIG. 9C).

[1] = system: human ELP1 gene with a Exon 20 splice mutation; experiment: In vivo full-length and Δ20 ELP1 mRNA by RT-qPCR in TgFD9 mice; parameters: species or system TgFD9 transgenic mice; settings: oral gavage once daily for 7 days, 10, 30, 60 or 100 mg/kg
Experimental: FIGS. 7A-7G show the relative expression of full-length (FL) and Δ20 ELP1 mRNA (left panel), and ELP1 protein quantification (right panel) in brain (FIG. 7A) and liver (FIG. 7B) after oral doses of Compound (I) ranging from 10 to 100 mg/kg in adult transgenic TgFD9 mouse (n=4-6 mice in each treatment group). Comparisons were done within the same group, against the vehicle-treated mice. In the figure, *p<0.05; **p<0.01; ***p<0.001.
FIGS. 7C-E show the relative expression of full-length (FL) and Δ20 ELP1 mRNA (left graphs), and ELP1 protein quantification (right graphs) in kidney (FIG. 7C), heart (FIG. 7D) and skin (FIG. 7E) after oral doses of Compound (I) ranging from 10 to 100 mg/kg in adult transgenic TgFD9 mouse (n=4-6 mice in each treatment group). […] The levels of compound were measured using mass spectrometry. […]
Compound (I) was evaluated in vivo to determine whether splicing correction can lead to a concomitant increase in ELP1 protein. […]
Brain, liver, lung, kidney, heart and skin tissues were removed and snap frozen in liquid nitrogen. […] The yield, purity and quality of the total RNA for each sample were determined using a Nanodrop ND-1000 spectrophotometer. Full-length and mutant ELP1 mRNA expression was quantified by quantitative real-time PCR (qRT-PCR) analysis using CFX384 Touch Real-Time PCR Detection System (BioRad). […] Data were analyzed using SDS software.

## Clc1nc(NCc2ccncc2)c2cc[nH]c2n1 [Compound (I), 2-chloro-N-(pyridin-4-ylmethyl)-7H-pyrrolo[2,3-d]pyrimidin-4-amine]
CFTR channel; CFBE c.2988G>A, 3 μM, 3 days (maximal increase)
  CFTR-specific change in current ΔIsc (±SD): 37.168±4.32 μA/cm^2
CFTR channel; CFBE c.2988G>A, 1, 3, 6 and 10 μM, 3 days, versus DMSO
  recovery of CFTR function: ~3 fold
CFTR channel; CFBE c.2988G>A, Compound (I) in combination with Ivacaftor
  chloride channel function: ~30 % of WT
CFTR channel; CFBE c.2988G>A, Compound (I) treatment alone
  chloride channel function: ~20 % of WT
[1]
  full-length ELP1 transcript: increased full-length ELP1 transcript in a dose-dependent manner
